Experimental data taken from US7914793B2, “Method for producing an antigenic substance and antibody” (priority 1997, dated 2011).

Key:
Candida albicans = experiment: CFU of Candida albicans in broth after Yoshixol; assay type: cell-based; settings: for CFU: 2 M Yoshixol in ethanol, 10 ul/ml broth
Description: (§1) This procedure was repeated twice.

[1] = system: Mycobacterium Rapid Grower; experiment: CFU of Mycobacterium Rapid Grower after Yoshixol; assay type: cell-based; settings: for CFU: 2 M Yoshixol in ethanol, 10 ul/ml broth, 3.3×10^5, 37° C.
Description: as §1

Pseudomonas aureginosa = experiment: CFU of Pseudomonas aureginosa after Yoshixol; assay type: cell-based; settings: for CFU: 2 M Yoshixol in ethanol, 10 ul/ml broth, 10^8, 37° C.
Description: as §1

[2] = intravenous injection of Yoshixol in control rabbit, observation for abnormal signs; assay type: in vivo; settings: Japanese white rabbit, 10 μl/Kg of 2 M Yoshixol with ethanol i.v. for 3 min, immediately after the injection through one month
Procedure: In addition, rabbit serum as the control which was shown in this example was produced by the following. In a Japanese white rabbit which was born from a parent as same as a rabbit which was used in the above example, 10 μl/Kg of 2 M Yoshixol with ethanol was injected intravenously for 3 min via a ear vein. Solution of Yoshixol was mixed with culture medium of 5 ml. The medium was filtered through miliporefilter of cellulose acetate (pore size, 0.45 μm). […] A rabbit was sacrificed under Nembutal anesthesia one month after the injection. Blood was removed.

MRSA = experiment: CFU of MRSA in broth after Yoshixol; assay type: cell-based, methicilin resistant Staphylococcus aureus
Description: as §1

C=C1CC(C)(C)C=CC1=O [Yoshixol, 4,4-dimethyl-6-methylene-2-cyclohexen-1-one]
CFU (Candida albicans; 10^8, 3 hours after the incubation): zero
CFU (Candida albicans; 10^8, one hour after the incubation): zero
colony growth on heart infusion agar after re-plating 0.1 ml (Candida albicans; incubated for 48 hours): no colony growth
CFU ([1]; 3 hours after the incubation): zero
CFU ([1]; one hour after the incubation): zero
colony growth on heart infusion agar after re-plating 0.1 ml ([1]; incubated at 37° C. for 72 hours): no colony growth
CFU (Pseudomonas aureginosa; 3 hours after the incubation): zero
CFU (Pseudomonas aureginosa; one hour after the incubation): zero
colony growth on heart infusion agar after re-plating 0.1 ml (Pseudomonas aureginosa; incubated at 37° C. for 48 hours): no colony growth
abnormal signs after injection [2]: Any abnormal sign did not find
CFU (MRSA; 2 M Yoshixol in ethanol, 10 ul/ml broth, 7.6×10^8, 37 °, 24 hours after the incubation): zero
colony growth on heart infusion agar after re-plating 0.1 ml (MRSA; incubated for 48 hours): no colony growth
